In patent publication US12162872B2, “Cycloalkylurea derivative” (Sumitomo Pharma Co., Ltd., priority 2019, dated 2024):

The compounds below were run against T1, Human orexin receptor type 2 (Homo sapiens, UniProt O43614) (assay: Test 2: Evaluation of agonist activity for orexin receptor type 2 (aequorin luminescence, intracellular calcium mobilization in CHO cells)). Conditions: relative percentage of luminescence for the luminescence (100%) of Orexin A (100 pM); CHO cells transiently expressing human orexin receptor type 2 and apoaequorin; Orexin A Lot. 671009.
T1 construct: expressed in transfected cells; host or cells: CHO cells (transient expression)
T1 sequence (O43614 1-444): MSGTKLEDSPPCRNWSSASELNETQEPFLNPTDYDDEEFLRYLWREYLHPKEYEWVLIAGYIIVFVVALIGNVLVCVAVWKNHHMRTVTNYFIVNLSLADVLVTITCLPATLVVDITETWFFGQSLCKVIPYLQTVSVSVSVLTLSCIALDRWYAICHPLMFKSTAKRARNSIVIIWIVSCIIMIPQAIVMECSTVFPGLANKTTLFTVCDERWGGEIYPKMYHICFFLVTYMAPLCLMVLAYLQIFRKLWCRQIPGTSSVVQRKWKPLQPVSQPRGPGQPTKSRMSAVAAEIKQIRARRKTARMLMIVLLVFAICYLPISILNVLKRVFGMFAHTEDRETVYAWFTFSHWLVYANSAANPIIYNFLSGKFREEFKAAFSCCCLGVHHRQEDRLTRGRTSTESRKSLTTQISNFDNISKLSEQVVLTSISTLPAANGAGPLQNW
Assay type: cell-based
Protocol: Test 2: Evaluation of Agonist Activity for Orexin Receptor Type 2
Human orexin receptor type 2 and apoaequorin were transiently expressed in CHO cells, and the agonist activity was evaluated based on intracellular calcium mobilization with ligand stimulation. The CHO cells transiently-expressed human orexin receptor type 2 and apoaequorin were seeded on a 384-well plate by 2,000 cells/well, and then incubated for 16-22 hours. After the plate was returned to room temperature, Coelenterazine hcp (final concentration: 1 μM) was added to the plate, and the plate was allowed to stand at room temperature for 2 hours. And then, Orexin A (PEPTIDE INSTITUTE, INC., Lot. 671009) or each test compound was added to the plate, and the luminescence of the cells was measured with FDSS7000 (Hamamatsu Photonics K.K.), wherein Orexin A and each test compound were dissolved in DMSO (final concentration: 0.1%), and diluted with a buffer (Hanks, 20 mM HEPES, 0.1% BSA). The agonist activity of each test compound for orexin receptor type 2 was calculated as relative percentage of luminescence for the luminescence (100%) of Orexin A (100 pM).
In the case of `CC1(c2noc([C@@H]3C[C@@H]3F)n2)CCN(C(=O)N[C@@H]2[C@@H](O[C@H]3CCN(CC4CC4)C3)CCCC2(F)F)CC1` [Example 118, N-[(1R,6S)-6-{[(3S)-1-(cyclopropylmethyl)pyrrolidin-3-yl]oxy}-2,2-difluorocyclohexyl]-4-{5-[(1S,2S)-2-fluorocyclopropyl]-1,2,4-oxadiazol-3-yl}-4-methylpiperidine-1-carboxamide], the “agonist activity (%)” value is reported as 524%. In the case of `CC(C)(C)CN1CC[C@H](O[C@H]2CCCC(F)(F)[C@@H]2NC(=O)N2CCC(C)(c3noc(C4CC4)n3)CC2)C1` [Example 119, 4-(5-cyclopropyl-1,2,4-oxadiazol-3-yl)-N-[(1R,6S)-6-{[(3S)-1-(2,2-dimethylpropyl)pyrrolidin-3-yl]oxy}-2,2-difluorocyclohexyl]-4-methylpiperidine-1-carboxamide], the “agonist activity (%)” value is reported as 378%. For `CC(C)(C)CN1CC[C@H](O[C@H]2CCCC(F)(F)[C@@H]2NC(=O)N2CCC(C)(c3noc([C@@H]4C[C@@H]4F)n3)CC2)C1` [Example 120, N-[(1R,6S)-6-{[(3S)-1-(2,2-dimethylpropyl)pyrrolidin-3-yl]oxy}-2,2-difluorocyclohexyl]-4-{5-[(1S,2S)-2-fluorocyclopropyl]-1,2,4-oxadiazol-3-yl}-4-methylpiperidine-1-carboxamide], the “agonist activity (%)” value was 387%. With `CC1(CN2CC[C@H](O[C@H]3CCCC(F)(F)[C@@H]3NC(=O)N3CCC(C)(c4noc([C@@H]5C[C@@H]5F)n4)CC3)C2)CC1` [Example 121, N-[(1R,6S)-2,2-difluoro-6-({(3S)-1-[(1-methylcyclopropyl)methyl]pyrrolidin-3-yl}oxy)cyclohexyl]-4-{5-[(1S,2S)-2-fluorocyclopropyl]-1,2,4-oxadiazol-3-yl}-4-methylpiperidine-1-carboxamide] the “agonist activity (%)” value was 379%. In the case of `CC1(c2noc(C3CC3)n2)CCN(C(=O)N[C@@H]2[C@@H](O[C@H]3CCN(CC4CC4)C3)CCCC2(F)F)CC1` [Example 122, N-[(1R,6S)-6-{[(3S)-1-(cyclopropylmethyl)pyrrolidin-3-yl]oxy}-2,2-difluorocyclohexyl]-4-(5-cyclopropyl-1,2,4-oxadiazol-3-yl)-4-methylpiperidine-1-carboxamide], the “agonist activity (%)” value is reported as 369%. `CC(C)N1CCC(N(C)[C@H]2CCCC(F)(F)[C@@H]2NC(=O)N2CCC(C)(c3noc([C@@H]4C[C@@H]4F)n3)CC2)CC1` [Example 123, N-[(1R,6S)-2,2-difluoro-6-{methyl[1-(propan-2-yl)piperidin-4-yl]amino}cyclohexyl]-4-{5-[(1S,2S)-2-fluorocyclopropyl]-1,2,4-oxadiazol-3-yl}-4-methylpiperidine-1-carboxamide] was tested, and the “agonist activity (%)” value was 366%. With `CC1(c2noc([C@@H]3C[C@@H]3F)n2)CCN(C(=O)N[C@@H]2[C@@H](N3CCC(N4CCCC4)CC3)CCCC2(F)F)CC1` [Example 124, N-{(1R,6S)-2,2-difluoro-6-[4-(pyrrolidin-1-yl)piperidin-1-yl]cyclohexyl}-4-{5-[(1S,2S)-2-fluorocyclopropyl]-1,2,4-oxadiazol-3-yl}-4-methylpiperidine-1-carboxamide] the “agonist activity (%)” value was 391%. `CC(C)N1CC2CN([C@H]3CCCC(F)(F)[C@@H]3NC(=O)N3CCC(C)(c4noc([C@@H]5C[C@@H]5F)n4)CC3)CC2C1` (stereo partly drawn) [Example 125, N-{(1R,6S)-2,2-difluoro-6-[5-(propan-2-yl)hexahydropyrrolo[3,4-c]pyrrol-2(1H)-yl]cyclohexyl}-4-{5-[(1S,2S)-2-fluorocyclopropyl]-1,2,4-oxadiazol-3-yl}-4-methylpiperidine-1-carboxamide] was tested, and the “agonist activity (%)” value was 402%. `CC1(CN2CC[C@H](O[C@H]3CCCC(F)(F)[C@@H]3NC(=O)N3CCC(C)(c4noc(C5CC5)n4)CC3)C2)CC1` [Example 126, 4-(5-cyclopropyl-1,2,4-oxadiazol-3-yl)-N-[(1R,6S)-2,2-difluoro-6-({(3S)-1-[(1-methylcyclopropyl)methyl]pyrrolidin-3-yl}oxy)cyclohexyl]-4-methylpiperidine-1-carboxamide] was tested, and the “agonist activity (%)” value was 394%. For `CC(C)N1CCC2(CCN([C@H]3CCCC(F)(F)[C@@H]3NC(=O)N3CCC(C)(c4noc([C@@H]5C[C@@H]5F)n4)CC3)CC2)C1` [Example 127, N-{(1R,6S)-2,2-difluoro-6-[2-(propan-2-yl)-2,8-diazaspiro[4.5]decan-8-yl]cyclohexyl}-4-{5-[(1S,2S)-2-fluorocyclopropyl]-1,2,4-oxadiazol-3-yl}-4-methylpiperidine-1-carboxamide], the “agonist activity (%)” value was 367%. In the case of `CC(C)CN(C)[C@H]1CCN([C@H]2CCCC(F)(F)[C@@H]2NC(=O)N2CCC(C)(c3noc([C@@H]4C[C@@H]4F)n3)CC2)C1` [Example 128, N-[(1R,6S)-2,2-difluoro-6-{(3S)-3-[methyl(2-methylpropyl)amino]pyrrolidin-1-yl}cyclohexyl]-4-{5-[(1S,2S)-2-fluorocyclopropyl]-1,2,4-oxadiazol-3-yl}-4-methylpiperidine-1-carboxamide], the “agonist activity (%)” value is reported as 402%. In the case of `CCN(CC)C1CCN([C@H]2CCCC(F)(F)[C@@H]2NC(=O)N2CCC(C)(c3noc([C@@H]4C[C@@H]4F)n3)CC2)CC1` [Example 129, N-{(1R,6S)-6-[4-(diethylamino)piperidin-1-yl]-2,2-difluorocyclohexyl}-4-{5-[(1S,2S)-2-fluorocyclopropyl]-1,2,4-oxadiazol-3-yl}-4-methylpiperidine-1-carboxamide], the “agonist activity (%)” value is reported as 435%. In the case of `Cc1ccc(C2(C)CCN(C(=O)N[C@@H]3[C@@H](O[C@H]4CCN(CC5(C)CC5)C4)CCCC3(F)F)CC2)cc1` [Example 130, N-[(1R,6S)-2,2-difluoro-6-({(3S)-1-[(1-methylcyclopropyl)methyl]pyrrolidin-3-yl}oxy)cyclohexyl]-4-methyl-4-(4-methylphenyl)piperidine-1-carboxamide], the “agonist activity (%)” value is reported as 450%. With `CC(C)N(C)C1(C)CCN([C@H]2CCCC(F)(F)[C@@H]2NC(=O)N2CCC(C)(c3noc([C@@H]4C[C@@H]4F)n3)CC2)CC1` [Example 131, N-[(1R,6S)-2,2-difluoro-6-{4-methyl-4-[methyl(propan-2-yl)amino]piperidin-1-yl}cyclohexyl]-4-{5-[(1S,2S)-2-fluorocyclopropyl]-1,2,4-oxadiazol-3-yl}-4-methylpiperidine-1-carboxamide] the “agonist activity (%)” value was 461%. For `CC(C)N1CCN(C(=O)[C@H]2CCCC(F)(F)[C@@H]2NC(=O)N2CCC(C)(c3noc([C@@H]4C[C@@H]4F)n3)CC2)CC1` [Example 132, N-{(1R,6S)-2,2-difluoro-6-[4-(propan-2-yl)piperazine-1-carbonyl]cyclohexyl}-4-{5-[(1S,2S)-2-fluorocyclopropyl]-1,2,4-oxadiazol-3-yl}-4-methylpiperidine-1-carboxamide], the “agonist activity (%)” value was 166%. For `CC1(c2noc([C@@H]3C[C@@H]3F)n2)CCN(C(=O)N[C@@H]2[C@@H](O[C@H]3CCN(CC4(F)CC4)C3)CCCC2(F)F)CC1` [Example 133, N-[(1R,6S)-2,2-difluoro-6-({(3S)-1-[(1-fluorocyclopropyl)methyl]pyrrolidin-3-yl}oxy)cyclohexyl]-4-{5-[(1S,2S)-2-fluorocyclopropyl]-1,2,4-oxadiazol-3-yl}-4-methylpiperidine-1-carboxamide], the “agonist activity (%)” value was 506%. `CN(CC1(C)CC1)C1CCN([C@H]2CCCC(F)(F)[C@@H]2NC(=O)N2CCC(C)(c3noc([C@@H]4C[C@@H]4F)n3)CC2)CC1` [Example 134, N-[(1R,6S)-2,2-difluoro-6-(4-{methyl[(1-methylcyclopropyl)methyl]amino}piperidin-1-yl)cyclohexyl]-4-{5-[(1S,2S)-2-fluorocyclopropyl]-1,2,4-oxadiazol-3-yl}-4-methylpiperidine-1-carboxamide] was tested, and the “agonist activity (%)” value was 456%. With `CC1(c2noc([C@@H]3C[C@@H]3F)n2)CCN(C(=O)N[C@@H]2[C@@H](O[C@H]3CCN(CC4(C(F)(F)F)CC4)C3)CCCC2(F)F)CC1` [Example 135, N-[(1R,6S)-2,2-difluoro-6-{[(3S)-1-{[1-(trifluoromethyl)cyclopropyl]methyl}pyrrolidin-3-yl]oxy}cyclohexyl]-4-{5-[(1S,2S)-2-fluorocyclopropyl]-1,2,4-oxadiazol-3-yl}-4-methylpiperidine-1-carboxamide] the “agonist activity (%)” value was 396%.
